The results in this text go back to US20030040515A1, “Regulation of platelet adhesion and aggregation” (priority 2002, published 2003).

The test system of test [1] is vWF depolymerizing activity of BAECcm. The experiment in a line: Inhibitor profile of the vWF depolymerizing activity of BAEC conditioned medium. Type of test: biochemical.
Test [2] concerns the target T1, purified vWF (Homo sapiens, UniProt P04275). Description: MPB labelling assay for reduction of vWF disulfide bond(s) / formation of new thiols in vWF. Type of test: biochemical. Set-up: Purified vWF from human plasma was obtained from the Baker Medical Research Institute; tissue Baker Medical Research Institute, Melbourne (vWF); host or cells: human plasma (vWF); human platelet concentrates (TSP-1). The note with it: chelation of Ca2+ in the reactions. As to the method: The biotin-linked maleimide, MPB, was used to measure reduction of vWF disulfide bond(s) in BAECcm. […] Free thiol(s) formed in vWF by reduction of disulfide bonds bond(s) were labelled with MPB (100 μM) and the unreacted MPB was quenched with GSH (200 μM). N-ethylmaleimide reacts rapidly with free thiols with a second order rate constant of ˜10^4 M^−1s^−1 at pH 8 (Torchinski and Dixon, 1974). Therefore, the half life for reaction of free thiols in vWF with the maleimide moiety of MPB was anticipated to be in the order of a few seconds. Aliquots of the reactions containing MPB-labelled vWF were incubated in ELISA plate wells coated with anti-vWF polyclonal antibodies. The adsorbed vWF was incubated with streptavidin peroxidase to measure the incorporated MPB. The control for vWF labelling was incubation and labelling of BAECcm alone, prior to addition of vWF. This reaction represented the contribution to the assay of MPB labelling of endogenous vWF and/or other vWF binding proteins in the BAECcm. […]
Reduction of disulfide bonds in vWF was anticipated to result in a net increase in free thiols in the vWF population. […] The MPB-labeled vWF was incubated in ELISA plate wells coated with anti-human vWF polyclonal antibodies and the biotin label was detected using StreptABComplex/HRP (DAKO Corporation, Carpinteria, Calif.).

The target in the next test is T2, vWF (Homo sapiens, UniProt P04275).
T2 construct: from tissue; host or cells: plasma of a TTP patient (vWF); human platelet concentrates (TSP-1)
The experiment in a line: Reduction in average multimer size of vWF in TTP plasma (agarose gel, collagen binding/vWF antigen). The class given is biochemical. The conditions noted are these: chelation of Ca2+. The procedure: TTP plasma was incubated with 20 mM Hepes, 0.14M NaCl, 1 mM CaCl2, 1 mM MgCl2, pH 7.4 buffer, conditioned media of HMEC-1 cells or the Hepes buffer containing TSP-1 for 1 or 24 hours at 37° C. Aliquots of the reactions were diluted 10-fold in the Hepes buffer and assayed for collagen binding affinity and vWF antigen as described by Favaloro et al. (1991). On some occasions, aliquots of the reactions were resolved on 1% agarose gel electrophoresis (Ruggeri and Zimmerman, 1980), transferred to PVDF membrane (DuPont NEN, Boston, Mass.), blotted with 2 μg per ml of horse radish peroxidase conjugated anti-vWF polyclonal antibodies (DAKO Corporation, Carpinteria, Calif.) and visualized using chemiluminescence (DuPont NEN, Boston, Mass.).
TSP-1 is a major component of platelet α-granules which is secreted upon platelet activation and aggregation. TSP-1 was purified to homogeneity from pooled outdated human platelet concentrates (Murphy-Ullrich and Mosher. 1985; Hogg et al., 1997) and tested for vWF reductase activity. Buffers containing 0.1 mM CaCl2 were used throughout the chromatographic purification of TSP1. […] In particular, the very large multimers were lost (see bracket in FIG. 3A). […] TSP-1-mediated reduction in vWF multimer size was concentration- and time-dependent (FIG. 3B). Three different preparations of platelet TSP-1 had the same vWF reducing activity (not shown). It is noteworthy that the molar ratio of TSP-1 to vWF influenced the extent of reduction in vWF multimer size (FIG. 3B). The vWF reductase activity in endothelial cell conditioned medium is inhibited by EDTA. In accordance with this observation, chelation of Ca^2+ with EDTA ablated the vWF reductase activity of TSP-1 (not shown).

Test [3] concerns the target T1, purified vWF. The experiment in a line: Effect of purified reductants on affinity of purified vWF for collagen. The class given is biochemical. The note with it: 24 hours at 37° C.; for effect on vWF collagen affinity: PDI at 10 nM. The procedure:
Confluent HUVEC's were washed with M199 without FCS and incubated in M199 for up to 8.5 hours. The HUVECS were stimulated to release vWF by adding […] human α-thrombin after 0.5 hours. The thrombin was quenched after 2 hours incubation by adding 5 mM D-Phe-Pro-Arg-chloromethyl ketone. Samples of the conditioned medium were collected at discrete time intervals and analyzed for vWF by 1% agarose gel electrophoresis and Western blotting or vWF antigen levels and collagen binding affinity (not shown). vWF antigen levels were determined using ELISA by capturing the vWF with adsorbed anti-vWF polyclonal antibodies and detecting using peroxidase conjugated anti-vWF polyclonal antibodies (Favoloro et al., 1991). Collagen binding affinity was assessed by incubating the vWF in plastic wells coated with type I/III collagen for 1 hour and measuring the bound vWF using peroxidase conjugated anti-vWF antibodies (Favoloro et al., 1991). Large vWF multimers bind to collagen with up to ˜100-fold higher affinity than smaller multimers, therefore affinity for collagen is a useful indicator of average vWF multimer size.
The effect of incubation of purified vWF with GSH, PDI, or GSH and PDI, for 24 hours at 37° C. on the affinity of vWF for collagen was analysed. […] The half-maximal effect of GSH on vWF collagen affinity was ˜20 μM. […] The half-maximal effect of GSH in the presence on PDI on vWF collagen affinity was similar to that of GSH alone, ˜20 μM.

Test [4] has as its target T1, purified vWF. The experiment in a line: Effect of purified reductants or thiol reagents on the average multimer size of purified vWF (agarose gel electrophoresis). The class given is biochemical. Also noted: Purified vWF from human plasma was obtained from the Baker Medical Research Institute; tissue Baker Medical Research Institute, Melbourne; host or cells: human plasma. The conditions noted are these: for effect on average multimer size of purified vWF: GSH 20 μM, PDI 10 nM, thioredoxin 10 nM, 24 hours at 37° C.

A further test has as its target plasma vWF (Homo sapiens, UniProt P04275). The note with it: GSH 20 μM added to BAECcm. As to the method:
To test whether exogenous GSH could augment vWF depolymerization by BAECcm, plasma vWF was incubated with BAECcm, or BAECcm and GSH (20 μM), and multimer size measured by either agarose gel electrophoresis or collagen binding.

[5] abbreviates: measured by agarose gel electrophoresis or collagen binding, BAECcm treated with agent.

Like-named read-outs stand apart in the source and are kept apart here. Non-standard residues stand in square brackets, D forms with d. Residues, ends and D or L forms follow the SMILES beside them. *: point of attachment. Sta = CC(C)C[C@H](N)[C@@H](O)CC(=O)O; Isovaleryl = CC(C)CC(=O)*

Turning to `CC(=O)N[C@@H](CC(C)C)C(=O)N[C@@H](CC(C)C)C(=O)N[C@H](C=O)CCCNC(=N)N` [leupeptin], in test [1] (setting [5]), the “effect on vWF depolymerizing activity of BAECcm” value (from here on “effect … of BAECcm”) is given as “not inhibited”.
For `O=C(O)CN(CCN(CC(=O)O)CC(=O)O)CC(=O)O` [EDTA], the “effect … of BAECcm” value in test [1] is “ablated activity”. Also, the “effect on TSP-1-catalysed formation of free thiols in vWF” value on purified vWF [2] is “ablated”. At vWF, the “effect on vWF reductase activity of TSP-1” value is given as “ablated”.
As for `CC(C)C[C@H](NC(=O)[C@@H](NC(=O)N[C@@H](Cc1ccccc1)C(=O)O)[C@@H]1CCN=C(N)N1)C(=O)N[C@H](C=O)Cc1ccccc1` [chymostatin], in test [1] (setting [5]), the “effect … of BAECcm” value was “not inhibited”.
The same measure, in the same setting: with `CC(C)C[C@H](NC(=O)[C@H]1O[C@@H]1C(=O)O)C(=O)NCCCCN=C(N)N` [E-64] the entry was “inactivated”.
As for `N[C@@H](CCC(=O)N[C@@H](CS)C(=O)NCC(=O)O)C(=O)O` [GSH, reduced glutathione], the “effect on vWF collagen affinity” value at purified vWF [3] is recorded as “reduced the collagen affinity of vWF”. Besides, the EC50 on purified vWF [3] (GSH alone, read-out: half-maximal effect on vWF collagen affinity) is ~20 µM; on purified vWF [3] (GSH in the presence of PDI, read-out: half-maximal effect on vWF collagen affinity in the presence of PDI), ~20 µM. In addition, the “effect on average multimer size of purified vWF” value (shortened to “effect … of purified vWF”) on purified vWF [4] is on record as “reduction of the average multimer size of vWF”. On plasma vWF (agarose gel electrophoresis), the “vWF depolymerization over that by BAECcm alone” value is reported as “small increase”. Also, the “collagen affinity of vWF” value on plasma vWF (p<0.05) is “significant reduction”.
As to aprotinin, the “effect … of BAECcm” value in test [1] (setting [5]) is recorded as “not inhibited”.
Turning to thioredoxin, the “effect … of purified vWF” value at purified vWF [4] is on record as “reduction of the average multimer size of vWF”.
For `CC(C)CC(=O)N[C@H](C(=O)N[C@H](C(=O)N[C@@H](CC(C)C)[C@@H](O)CC(=O)N[C@@H](C)C(=O)N[C@@H](CC(C)C)[C@@H](O)CC(=O)O)C(C)C)C(C)C` [pepstatin] (Isovaleryl-VV[Sta]A[Sta]-OH), in test [1] (setting [5]), the “effect … of BAECcm” value was “not inhibited”.
In the case of `NC(=O)CI` [IAM, iodoacetamide], in test [1] (setting [5]), the “effect … of BAECcm” value was “inactivated”. In addition, the “effect on average multimer size of vWF” value at purified vWF [4] (incubation of vWF with IAM or NEM alone) is given as “did not have any discernible effect”.
For `NCCc1ccc(S(=O)(=O)F)cc1` [4-(2-aminoethyl)benzenesulfonylfluoride], the “effect … of BAECcm” value in test [1] (setting [5]) was “not inhibited”.
Turning to `CC(C)C[C@H](NP(=O)(O)O[C@@H]1O[C@@H](C)[C@H](O)[C@@H](O)[C@H]1O)C(=O)N[C@@H](Cc1c[nH]c2ccccc12)C(=O)O` [phosphoramidon], the “effect … of BAECcm” value in test [1] (setting [5]) was “not inhibited”.
For PDI: purified reductant, the “effect on vWF collagen affinity” value in the test with purified vWF [3] is recorded as “reduced vWF collagen affinity to the same extent as 20 μM GSH”. In addition, the “effect … of purified vWF” value with purified vWF [4] is recorded as “reduction of the average multimer size of vWF”.
